Columns and labels:
[1] = target: T1, Hepatic sodium/bile acid cotransporter (Rattus norvegicus, UniProt P26435); test: TP_TRANSPORTER: Western in vivo, liver of SD rat; format: functional, organism-based, Sprague-Dawley
T1 sequence (P26435 whole entry): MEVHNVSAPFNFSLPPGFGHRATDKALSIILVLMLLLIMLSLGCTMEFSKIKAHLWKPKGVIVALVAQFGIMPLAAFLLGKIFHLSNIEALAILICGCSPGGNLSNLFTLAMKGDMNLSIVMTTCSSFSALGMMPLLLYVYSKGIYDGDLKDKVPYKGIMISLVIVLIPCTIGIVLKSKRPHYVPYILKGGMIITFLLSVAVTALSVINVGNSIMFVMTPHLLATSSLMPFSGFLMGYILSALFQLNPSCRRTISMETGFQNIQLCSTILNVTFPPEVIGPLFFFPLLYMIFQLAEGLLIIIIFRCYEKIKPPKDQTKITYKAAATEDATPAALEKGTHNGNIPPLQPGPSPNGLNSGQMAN

[2] = target: T1, Hepatic sodium/bile acid cotransporter; test: TP_TRANSPORTER: Northern blot in vivo, liver of SD rat; format: functional, organism-based, Sprague-Dawley

- Activity [1]: inducer [Decrease]
- Activity [2]: inducer [Decrease]
SMILES: CCCCCCCCCCCCCC(=O)OC(CCCCCCCCCCC)CC(=O)OC1C(NC(=O)CC(CCCCCCCCCCC)OC(=O)CCCCCCCCCCC)C(OC2CC(OC(=O)CC(O)CCCCCCCCCCC)C(NC(=O)CC(O)CCCCCCCCCCC)C(O)O2)OC(CO)C1OP(=O)(O)O (configuration not stated)
